Data on 13 molecules can be found in PubChem BioAssay (NCI).

Test systems include A549 NSCLC; ACHN renal; COLO 205 colon; HOP-62 NSCLC; MDA-MB-231 breast; MDA-MB-435; MDA-N; RPMI-8226 leukemia; U251 CNS; UO-31 renal.
Experiment in all cases: NCI anticancer screen, dose series, 48 h

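Interpolation was linear, between the two tested concentrations surrounding the appropriate level; five concentrations were tested over 48 hours in 96-well plates. Definition used: TGI = concentration required for complete inhibition of growth.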

Regarding `C#CCn1c(=O)c(Cl)cn(/C(=C/C(=O)OCC)C(=O)OCC)c1=O`, the TGI was above 62.8 µM with A549 NSCLC; 3.93 µM in the test with ACHN renal; 2.5 µM in the test with COLO 205 colon; 37.8 µM in the test with HOP-62 NSCLC; 35.1 µM in the test on MDA-MB-231 breast; 35.8 µM in the test on MDA-MB-435. Also, the TGI with MDA-N amounted to 29.9 µM; in the test with RPMI-8226 leukemia, 5.28 µM; in the test with U251 CNS it was 35 µM; in the test with UO-31 renal it was 10.6 µM.

Turning to `CCSc1nc(N)c2c(-c3ccccc3)c3c(nc2n1)CCC3`, the TGI in the test with A549 NSCLC, with ACHN renal, with COLO 205 colon, with HOP-62 NSCLC, in the test on MDA-MB-231 breast and with MDA-MB-435 was above 100 µM in each case. Also, the TGI with MDA-N was above 100 µM; in the test with RPMI-8226 leukemia it was above 100 µM; in the test with U251 CNS it was above 100 µM; in the test on UO-31 renal, 9.02 µM.

With `O=[N+]([O-])c1c2nc3n(c2cc2c1nc1n2CCC1)CCC3`, the TGI in the test on A549 NSCLC, with ACHN renal, with COLO 205 colon, with HOP-62 NSCLC, in the test on MDA-MB-231 breast and in the test on MDA-MB-435 was above 100 µM in each case. Further, the TGI with MDA-N, with RPMI-8226 leukemia, in the test on U251 CNS and in the test on UO-31 renal was above 100 µM in each case.

As to `COc1ccc2cc(C(=O)NCCCNC(=O)c3ccc4cc(OC)ccc4c3)ccc2c1`, the TGI with A549 NSCLC was above 100 µM; with ACHN renal it was above 100 µM; in the test with COLO 205 colon, above 100 µM; in the test with HOP-62 NSCLC, 42.1 µM; in the test with MDA-MB-231 breast, above 74.4 µM; in the test with MDA-MB-435, above 100 µM. Further, the TGI with MDA-N is above 100 µM; in the test with RPMI-8226 leukemia, above 100 µM; in the test with U251 CNS, above 85.4 µM; in the test on UO-31 renal, above 100 µM.

In the case of `CCCCCCCCCCCCCCCCCCOCC(COP(=O)([O-])OCC[N+](C)(C)C)OC` (stereo not given), the TGI with A549 NSCLC is 49.3 µM; in the test on ACHN renal, above 100 µM; in the test with COLO 205 colon, 21.2 µM; with HOP-62 NSCLC it was above 58.9 µM; with MDA-MB-231 breast, above 100 µM; with MDA-MB-435, above 100 µM. Besides, the TGI with MDA-N is above 100 µM; in the test with RPMI-8226 leukemia it was 45.7 µM; in the test on U251 CNS, 42.8 µM; in the test with UO-31 renal, 52.7 µM.

As to `C#CC(O)/C=C/C(O)CCCC(O)CC#CC(O)C#CC(O)CCCC(O)/C=C/CCCC(=O)CCCCCCCCCCCCCCCC(O)C(O)C#CC(=O)O` (stereo not given), the TGI with A549 NSCLC, in the test with ACHN renal, in the test on COLO 205 colon, in the test on HOP-62 NSCLC, with MDA-MB-231 breast and with MDA-MB-435 was above 50 µM in each case. Besides, the TGI is above 50 µM in the test with MDA-N, above 50 µM in the test with RPMI-8226 leukemia, above 50 µM in the test on U251 CNS and 22.1 µM with UO-31 renal.

On to `c1ccc(C(CCN2CC3CCC(CC3)C2)c2ccccc2)cc1`, for which the TGI in the test with A549 NSCLC is above 100 µM; in the test with ACHN renal, 57.8 µM; with COLO 205 colon, 25.1 µM; in the test on HOP-62 NSCLC, 70.5 µM; in the test on MDA-MB-231 breast, 38.3 µM; in the test with MDA-MB-435 it was 65.4 µM. Besides, the TGI in the test on MDA-N amounted to 58.9 µM; with RPMI-8226 leukemia it was 36.7 µM; in the test on U251 CNS, 35.1 µM; in the test with UO-31 renal, 45.7 µM.

Take `O=c1cc(N=Nc2ccc(Cl)cc2)[nH]c(=O)[nH]1`: the TGI in the test with A549 NSCLC turned out to be 18.8 µM; in the test on ACHN renal, 5.76 µM; in the test on COLO 205 colon it was 5.81 µM; in the test on HOP-62 NSCLC, 30.1 µM; in the test with MDA-MB-231 breast, 8.28 µM; in the test with MDA-MB-435, 14 µM. The TGI with MDA-N was found to be 11 µM; in the test on RPMI-8226 leukemia, 12 µM; in the test on U251 CNS, 12.6 µM; in the test with UO-31 renal, 10.6 µM.

Take `COc1ccc(/C=N/NC(=O)c2cnc3[nH]c(=O)n(C)c(=O)c3c2)cc1`: the TGI in the test with A549 NSCLC is above 100 µM; in the test on ACHN renal, above 100 µM; in the test with COLO 205 colon, above 100 µM; in the test with HOP-62 NSCLC it was above 100 µM; in the test on MDA-MB-231 breast, 86.8 µM; with MDA-MB-435 it was above 100 µM. For the same molecule, the TGI in the test on MDA-N, in the test on RPMI-8226 leukemia, with U251 CNS and in the test with UO-31 renal was above 100 µM each time.

With `Nn1c(Cc2ccccc2)n[nH]c1=O`, the TGI in the test with A549 NSCLC, in the test on ACHN renal, with COLO 205 colon, in the test with HOP-62 NSCLC, with MDA-MB-231 breast and with MDA-MB-435 was above 100 µM each time. Moreover, the TGI with MDA-N, with RPMI-8226 leukemia, in the test on U251 CNS and with UO-31 renal was above 100 µM in each case.

For `CCc1nc2ccc(C(F)(F)F)cc2[nH]c1=O`, the TGI in the test with A549 NSCLC, with ACHN renal, with COLO 205 colon, in the test on HOP-62 NSCLC, with MDA-MB-231 breast and in the test on MDA-MB-435 was above 100 µM throughout. The TGI with MDA-N, with RPMI-8226 leukemia, in the test on U251 CNS and in the test with UO-31 renal was above 100 µM in each case.

Take `C=CCCCCCCCCCOC1C=CC(OC(C)=O)C(COC(C)=O)O1` (stereo not given): the TGI in the test on A549 NSCLC, with ACHN renal, in the test with COLO 205 colon, in the test on HOP-62 NSCLC, in the test with MDA-MB-231 breast and in the test on MDA-MB-435 was above 100 µM each time. For the same molecule, the TGI with MDA-N is above 100 µM; in the test with RPMI-8226 leukemia, 84.6 µM; with U251 CNS, above 100 µM; in the test on UO-31 renal, above 100 µM.

Consider `Cc1cc2nc(N3C(=O)/C(=C/c4ccc(Cl)cc4)N=C3c3ccccc3)sc2cc1C`, for which the TGI in the test with A549 NSCLC was above 100 µM; in the test with ACHN renal, above 100 µM; in the test with COLO 205 colon, 43.3 µM; in the test on HOP-62 NSCLC, above 100 µM; in the test on MDA-MB-231 breast, above 100 µM; in the test with MDA-MB-435, 30.7 µM. Besides, the TGI in the test with MDA-N was 30.3 µM; in the test with RPMI-8226 leukemia it was above 100 µM; in the test on U251 CNS it was 84.7 µM; in the test on UO-31 renal, above 100 µM.
